Consider three compounds from ChEMBL document CHEMBL4382216, “Asymmetric synthesis and biological evaluation of imidazole- and oxazole-containing synthetic lipoxin A4 mimetics (sLXms)” (Eur J Med Chem, 2019).

Active and inactive are the calls of the source. The rule behind the calls is not given here.

In data set [1] the test system is Mus musculus. The experiment in a line: Anti-inflammatory activity in zymosan-induced C57BL/6J mouse peritonitis model assessed as PMN leukocytes level in peritoneal cavity at 25 ug, ip pretreated for 1 hr followed by zymosan treatment and redosing of test compound at 1 hr post zymosan addition and measured 4 hrs post zymosan addition by flow cytometry (reference value: 100%). The data set is classed as functional.

Data set [2] deals with Mus musculus. Briefly: Anti-inflammatory activity in zymosan-induced C57BL/6J mouse peritonitis model assessed as total cell count in peritoneal cavity at 25 ug, ip pretreated for 1 hr followed by zymosan treatment and redosing of test compound at 1 hr post zymosan addition and measured 4 hrs post zymosan addition by flow cytometry (reference value: 100%). The format is functional. In general terms: In flow cytometry, cells or beads pass a laser one at a time.

Data set [3] concerns the target T1, N-formyl peptide receptor 2 (Homo sapiens) (UniProt P25090).
T1 sequence (whole entry): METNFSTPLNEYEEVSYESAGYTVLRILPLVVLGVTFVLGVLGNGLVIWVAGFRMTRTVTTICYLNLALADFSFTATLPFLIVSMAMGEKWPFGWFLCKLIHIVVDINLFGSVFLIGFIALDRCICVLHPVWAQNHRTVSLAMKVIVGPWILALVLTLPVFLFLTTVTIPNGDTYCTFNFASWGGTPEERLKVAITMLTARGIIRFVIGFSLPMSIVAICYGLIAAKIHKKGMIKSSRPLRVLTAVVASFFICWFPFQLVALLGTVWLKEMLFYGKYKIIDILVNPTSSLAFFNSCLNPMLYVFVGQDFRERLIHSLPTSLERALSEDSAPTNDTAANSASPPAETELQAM
Briefly: Agonist activity at ALX/FPR2 in human THP1 cells harboring NF-kB-Luc assessed as inhibition of LPS-induced NFkB signalling activation by measuring IFNgamma secretion at 10^-6 M pretreated for 30 mins followed by LPS stimulation for 24 hrs by electrochemiluminescence assay (reference value: 100%). The data set is classed as cell-based. Also on record: scale not given: the % may be the effect or the level left.

Data set [4] has as its target T1, N-formyl peptide receptor 2 (Homo sapiens). The experiment in a line: Agonist activity at ALX/FPR2 in human THP1 cells harboring NF-kB-Luc assessed as inhibition of LPS-induced NFkB signalling activation by measuring TNFalpha secretion at 10^-6 M pretreated for 30 mins followed by LPS stimulation for 24 hrs by electrochemiluminescence assay (reference value: 100%). The data set is classed as cell-based. Set-up: scale not given: the % may be the effect or the level left.

Data set [5] has as its system THP-1. The experiment in a line: Cytotoxicity against human THP1 cells harboring NFkB-Luc assessed as LDH release at 10'6 M after 24 hrs by spectrophotometric method relative to control. As to conditions: thp-1, 24 h. The format is cell-based. (LDH leaks from cells whose membrane has failed.)
Data set [6] deals with T1, N-formyl peptide receptor 2 (Homo sapiens). The experiment in a line: Agonist activity at ALX/FPR2 in human THP1 cells harboring NF-kB-Luc assessed as inhibition of LPS-induced NFkB signalling activation by measuring NF-kB activation level at 10^-6 M pretreated for 30 mins followed by LPS stimulation for 24 hrs by luciferase reporter gene assay. The data set is classed as cell-based. Also on record: scale not given: the % may be the effect or the level left. (In general: Reporter assays use an easily measured gene product as a stand-in for the process of interest.)

The target is the same in data set [7]. The experiment in a line: Agonist activity at ALX/FPR2 in human THP1 cells harboring NF-kB-Luc assessed as inhibition of LPS-induced NFkB signalling activation by measuring IL-12p70 secretion at 10^-6 M pretreated for 30 mins followed by LPS stimulation for 24 hrs by electrochemiluminescence assay (reference value: 100%). The data set is classed as cell-based. Also on record: scale not given: the % may be the effect or the level left.

Data set [8] shares this target. Briefly: Agonist activity at ALX/FPR2 in human THP1 cells harboring NF-kB-Luc assessed as inhibition of LPS-induced NFkB signalling activation by measuring IL-1beta secretion at 10^-6 M pretreated for 30 mins followed by LPS stimulation for 24 hrs by electrochemiluminescence assay (reference value: 100%). The format is cell-based. Set-up: scale not given: the % may be the effect or the level left.

Data set [9] shares this target. Briefly: Agonist activity at ALX/FPR2 in human THP1 cells harboring NF-kB-Luc assessed as inhibition of LPS-induced NFkB signalling activation by measuring IL-6 secretion at 10^-6 M pretreated for 30 mins followed by LPS stimulation for 24 hrs by electrochemiluminescence assay (reference value: 100%). The format is cell-based. Set-up: scale not given: the % may be the effect or the level left.

The species named for data set [10] is Homo sapiens. Briefly: Activation of Luc-fused NFkB (unknown origin) expressed in non-stimulated human THP1 cells assessed as relative luminescence unit at 10^-6 M after 24 hrs by luciferase reporter gene assay (reference value: 100%). The format is cell-based.
Data set [11] deals with T1, N-formyl peptide receptor 2 (Homo sapiens). The experiment in a line: Agonist activity at ALX/FPR2 (unknown origin) expressed in HEK293 cells co-expressing Galphaq assessed as induction of intracellular calcium accumulation at 1 uM by Fluo-4 dye based fluorescence spectrophotometric assay. The format is functional, cell-based.
The test system of data set [12] is HEK293. The experiment in a line: Induction of intracellular calcium accumulation in HEK293 cells at 1 uM by Fluo-4 dye based fluorescence spectrophotometric assay. The data set is classed as functional, cell-based. To be noted: Homo sapiens.
The species entered for data set [13] is Homo sapiens. The experiment in a line: Activation of Luc-fused NFkB (unknown origin) expressed in non-stimulated human THP1 cells assessed as relative luminescence unit at 10^-11 M after 24 hrs by luciferase reporter gene assay (reference value: 100%). The data set is classed as cell-based.
The species named for data set [14] is Homo sapiens. The experiment in a line: Activation of Luc-fused NFkB (unknown origin) expressed in non-stimulated human THP1 cells assessed as relative luminescence unit at 10^-12 M after 24 hrs by luciferase reporter gene assay (reference value: 100%). The data set is classed as cell-based.
The target in data set [15] is T2, N-formyl peptide receptor 2 (Homo sapiens, UniProt P25090).
T2 sequence (P25090 whole entry): T1 sequence (whole entry)
The experiment in a line: Agonist activity at ALX/FPR2 in human THP1 cells harboring NF-kB-Luc assessed as inhibition of LPS-induced NFkB signalling activation by measuring reduction in IL-12p70 secretion pretreated for 30 mins followed by LPS stimulation for 24 hrs by electrochemiluminescence assay. The format is cell-based. As to conditions: read-out: IC50.

Data set [16] concerns THP-1. Briefly: Cytotoxicity against human THP1 cells harboring NFkB-Luc assessed as LDH release at 10'8 M after 24 hrs by spectrophotometric method relative to control. The format is cell-based. To be noted: thp-1, 24 h.
Data set [17] concerns the target T2, N-formyl peptide receptor 2. Briefly: Agonist activity at ALX/FPR2 in human THP1 cells harboring NF-kB-Luc assessed as inhibition of LPS-induced NFkB signalling activation by measuring reduction in IL-6 secretion pretreated for 30 mins followed by LPS stimulation for 24 hrs by electrochemiluminescence assay. The data set is classed as cell-based. To be noted: read-out: IC50.

The subject of data set [18] is THP-1. The experiment in a line: Cytotoxicity against human THP1 cells harboring NFkB-Luc assessed as LDH release at 10'9 M after 24 hrs by spectrophotometric method relative to control. The format is cell-based. As to conditions: thp-1, 24 h.
The target in data set [19] is T2, N-formyl peptide receptor 2. Briefly: Agonist activity at ALX/FPR2 in human THP1 cells harboring NF-kB-Luc assessed as inhibition of LPS-induced NFkB signalling activation pretreated for 30 mins followed by LPS stimulation for 24 hrs by luciferase reporter gene assay. The format is cell-based.
In data set [20] the test system is THP-1. Briefly: Cytotoxicity against human THP1 cells harboring NFkB-Luc assessed as LDH release at 10'11 M after 24 hrs by spectrophotometric method relative to control. The format is cell-based. As to conditions: thp-1, 24 h.
For data set [21], the species on record is Homo sapiens. Briefly: Activation of Luc-fused NFkB (unknown origin) expressed in non-stimulated human THP1 cells assessed as relative luminescence unit at 10^-10 M after 24 hrs by luciferase reporter gene assay (reference value: 100%). The format is cell-based.
Data set [22] relates to THP-1. The experiment in a line: Cytotoxicity against human THP1 cells harboring NFkB-Luc assessed as LDH release at 10'10 M after 24 hrs by spectrophotometric method relative to control. The data set is classed as cell-based. As to conditions: thp-1, 24 h.
The subject of data set [23] is HEK293. The experiment in a line: Induction of intracellular calcium accumulation in HEK293 cells at 0.01 nM to 100 nM by Fluo-4 dye based fluorescence spectrophotometric assay. As to conditions: Homo sapiens. The data set is classed as functional, cell-based.
The species named for data set [24] is Homo sapiens. Briefly: Activation of Luc-fused NFkB (unknown origin) expressed in non-stimulated human THP1 cells assessed as relative luminescence unit at 10^-9 M after 24 hrs by luciferase reporter gene assay (reference value: 100%). The format is cell-based.
Data set [25] concerns the target T2, N-formyl peptide receptor 2. The experiment in a line: Agonist activity at ALX/FPR2 in human THP1 cells harboring NF-kB-Luc assessed as inhibition of LPS-induced NFkB signalling activation by measuring reduction in IFNgamma secretion pretreated for 30 mins followed by LPS stimulation for 24 hrs by electrochemiluminescence assay. The data set is classed as cell-based. As to conditions: read-out: IC50.

Data set [26] is filed under the species Homo sapiens. Briefly: Activation of Luc-fused NFkB (unknown origin) expressed in non-stimulated human THP1 cells assessed as relative luminescence unit at 10^-7 M after 24 hrs by luciferase reporter gene assay (reference value: 100%). The data set is classed as cell-based.
Data set [27] addresses T2, N-formyl peptide receptor 2. The experiment in a line: Agonist activity at ALX/FPR2 in human THP1 cells harboring NF-kB-Luc assessed as inhibition of LPS-induced NFkB signalling activation by measuring reduction in TNFalpha secretion pretreated for 30 mins followed by LPS stimulation for 24 hrs by electrochemiluminescence assay. The data set is classed as cell-based. As to conditions: read-out: IC50.

Data set [28] is filed under the species Homo sapiens. Briefly: Activation of Luc-fused NFkB (unknown origin) expressed in non-stimulated human THP1 cells assessed as relative luminescence unit at 10^-8 M after 24 hrs by luciferase reporter gene assay (reference value: 100%). The format is cell-based.
In data set [29] the test system is THP-1. The experiment in a line: Cytotoxicity against human THP1 cells harboring NFkB-Luc assessed as LDH release at 10'7 M after 24 hrs by spectrophotometric method relative to control. The data set is classed as cell-based. To be noted: thp-1, 24 h.
In data set [30] the target is T2, N-formyl peptide receptor 2. The experiment in a line: Agonist activity at ALX/FPR2 in human THP1 cells harboring NF-kB-Luc assessed as inhibition of LPS-induced NFkB signalling activation by measuring reduction in IL-1beta secretion pretreated for 30 mins followed by LPS stimulation for 24 hrs by electrochemiluminescence assay. The data set is classed as cell-based. To be noted: read-out: IC50.

The test system of data set [31] is THP-1. Briefly: Cytotoxicity against human THP1 cells harboring NFkB-Luc assessed as LDH release at 10'12 M after 24 hrs by spectrophotometric method relative to control. The data set is classed as cell-based. To be noted: thp-1, 24 h.

On to `C[C@@H]1C[C@H]2[C@@H]3CCC4=CC(=O)C=C[C@]4(C)[C@@]3(F)[C@@H](O)C[C@]2(C)[C@@]1(O)C(=O)CO` [DEXAMETHASONE], for which the Emax came out at 51.5% in data set [1] and 46.7% in data set [2]. The Activity in data set [3] is 45.1%; in data set [4], 58.1%; in data set [6], 53.2%; in data set [7], 62.6%; in data set [8], 13.6%; in data set [9], 1.5%. In [10], the Activity turned out to be 1.6%. Also, the “fold change (FC)” value in [5] amounted to 1.3.

For `Nc1ncnc2c1ncn2[C@@H]1O[C@H](COP(=O)(O)OP(=O)(O)OP(=O)(O)O)[C@@H](O)[C@H]1O`, the outcome in data set [11] and in data set [12] was Active.

For the compound `CCCCC[C@H](O)c1nc(-c2ccccc2)oc1/C=C/[C@@H](O)[C@@H](O)CCCC(=O)OC(C)C`, the Activity in [13] amounted to 4.5%; in data set [14], 6.2%; in [21] it was 6.2%; in data set [24], 5.3%; in [26], 4%; in data set [28] it was 4.3%. The Activity in data set [10] stood at 6.1%. Further, the IC50 in data set [15] came to 5.1 nM; in [17] it was 31.4 nM; in data set [19], 69.6 nM; in data set [25], 2.5 nM; in [27] it was 6.7 nM; in data set [30] it was 3.2 nM. Moreover, the “fold change (FC)” value in data set [16] was found to be 1; in [18], 0.9; in data set [20], 1.1; in data set [5], 1; in [22], 1; in data set [29], 1. The “fold change (FC)” value in data set [31] is reported as 1.1. The outcome in data set [23] was inactive.

As usually defined, the Emax is the size of the effect at its maximum, as opposed to the concentration needed. As a reminder, the IC50 is the concentration needed to halve the response being measured.
